Measurements reported in article PMC5597121, “The human bitter taste receptor T2R38 is broadly tuned for bacterial compounds” (PLoS ONE, 2017).
Changes are numbered by the printed parent chain. Where “and” joins values, the source holds several entries; their conditions need not be identical. Equal values may be shown once. Entries after “also recorded” stand apart in the source; their conditions may differ. Positions of bridges follow the written chain, without caps; N, C: chain ends. Residues, ends and D or L forms follow the SMILES beside them.

Legend:
T2R38 = biological target: T1, T2R38 (Homo sapiens, UniProt P59533, A49P/I296V); assay: Single cell calcium imaging, Peakrapid cells (Gα16gustducin44) transiently transfected with T2R38; assay type: cell-based; conditions: for response of T2R38 PAV transfected cells (S7_fig raw data): individual values of experiments 1-5; for EC50: concentration-response curve, read-out: EC50; for logEC50: given in the concentration-response curve; for Emax (% of positive control): percentage of the response elicited by 0.1 mM PTC
T1 construct: leader: first 45 amino acids of rat somatostatin receptor subtype 3 (SSTR3) (N); expressed in transfected cells; host or cells: Peakrapid cells (HEK293 derivative, ATCC CRL-2828) stably expressing Galpha16gustducin44, co-transfected with human RTP4
T1 sequence (P59533 1-333 A49P/I296V): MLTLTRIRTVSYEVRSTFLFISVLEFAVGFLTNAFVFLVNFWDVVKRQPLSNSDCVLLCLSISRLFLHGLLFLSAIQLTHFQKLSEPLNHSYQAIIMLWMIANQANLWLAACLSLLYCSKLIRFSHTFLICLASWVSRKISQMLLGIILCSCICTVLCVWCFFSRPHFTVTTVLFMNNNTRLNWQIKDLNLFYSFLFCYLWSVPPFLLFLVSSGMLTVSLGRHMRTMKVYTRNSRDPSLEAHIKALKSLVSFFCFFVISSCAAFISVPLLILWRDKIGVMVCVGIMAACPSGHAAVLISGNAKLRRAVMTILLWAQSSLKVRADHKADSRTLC
Outline: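 HEK293-derived Peakrapid cells stably expressing Gα16gustducin44 were transiently co-transfected with T2R38 (PAV or AVI variant) plus RTP4, then loaded with Fluo4 40 h later. Calcium responses were imaged 1/s for 30 s after ligand injection. Responding-cell surface was normalized to 0.1 mM PTC, with EC50 from four-parameter fits; testing began at 100 mM.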

[1] = Solubility in aqueous / buffer solution; assay type: physicochemical
Protocol: 32 volatile metabolites of pathogens (S1 Fig) were selected from the literature. All compounds were dissolved in buffer solution, except C4HSL dissolved in buffer solution, DMSO or ethanol, C12HSL dissolved in DMSO or ethanol, and Agr D1 thiolactone dissolved in DMSO.

[2] = tested on: mock transfected cells (empty vector); assay: Single cell calcium imaging, control: mock transfected (empty vector) Peakrapid cells; assay type: cell-based, human
Outline: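 Peakrapid cells stably expressing Gα16gustducin44 were transfected with empty vector plus RTP4, loaded with Fluo4 40 h later for 1 h at 37°C, and ligand was injected during 30 s imaging. The responding-cell surface fraction was normalized to 0.1 mM PTC activation. EC50 came from a four-parameter logistic fit.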

T2R38 AVI = biological target: T2, T2R38 AVI (Homo sapiens, UniProt P59533, A262V); assay: Single cell calcium imaging, control: cells transfected with nonfunctional allele (AVI) of T2R38; assay type: cell-based; conditions: T2R38 AVI, individual values of experiments 1-5
T2 construct: leader: first 45 amino acids of rat somatostatin receptor subtype 3 (SSTR3) (N); expressed in transfected cells; host or cells: Peakrapid cells (HEK293 derivative, ATCC CRL-2828) stably expressing Galpha16gustducin44, co-transfected with human RTP4
T2 sequence (P59533 1-333 A262V): T1 sequence (P59533 1-333 A49P/I296V) with P49A, A262V, V296I
Protocol: The coding sequences of either the functional (PAV, GenBank accession number AY258597.1) and non-functional (AVI, GenBank accession number AF494231.1) were amplified from human genomic DNA by polymerase chain reaction.
The Peakrapid cell line expressing stably a chimeric Gα16gustducin44 G protein [21] was used. 40 000 cells were seeded in each well of a black/clear poly-D-lysine cellware pre-coated 96-well plate (Biocoat®, Becton-Dickinson, Erembodegem, Belgium) and transiently transfected with 50 ng of plasmid DNA containing the receptor sequence or not (empty vector) and with 50 ng of chaperone protein RTP4 per well. Forty hours after transfection, cells were incubated with the calcium-sensitive dye Fluo4 (Life Technologies, Oregon, USA) solubilized at 10 μg/ml in a buffer containing EMEM (150 mM NaCl, 5 mM KCl, 2 mM CaCl2, 1.2 mM MgCl2, 10 mM glucose), 10 mM HEPES, 0.01% (v/v) Pluronic F127, 0.1% (w/v) bovine serum albumin. After 1 h incubation at 37°C, cells were rinsed twice with the same buffer without Fluo4 and left in 50 μl buffer (prior ligand injection). Measurement were performed on a platform based on a motorized Axiobserver Z1 fluorescence microscope piloted by a Axiovision software (Zeiss, Jena, Germany) as described previously. For each selected well, images were taken 1 per second, during 30 seconds. 50 μl of the buffer containing the ligand twice concentrated was injected on the 2nd second of the time lapse record.
After time lapse record, the number of responding cells in each injected well was determined using ImageJ 1.34 (Rasband, W.S., ImageJ, National Institutes of Health, Bethesda, Maryland, USA, http://rsb.info.nih.gov/ij/1997-2004), and expressed as the percentage of the surface of a microscope field covered by activated cells with respect to the total surface of the field covered by confluent cells. Automated determination of the surface occupied by responding cells is easier to perform than a cell counting. The resulting percentage of positive surface provided a convenient estimation of the percentage of responding cells, as observed by comparing the percentage of positive surface and percentage of responsive cells determined by direct counting, in the same experiment. In agreement with the literature, the percentage of responding cells was proportional to the agonist concentration. During experiment in each plate, at least 2 wells were tested with phenylthiocarbamide (PTC) at 0.1 mM, which is one of the best characterized agonist of T2R38 in the literature. The activation of T2R38 by PTC allows normalization of the result of other tested molecules. The results were thus expressed as the percentage of PTC activation. In scaling calcium imaging assays using this latter receptor, concentration-responses curves were performed and data were fitted to a four parameter logistic equation: y=min+ (max− min)/1+10 ^(logEC50−x)nH . Min and max are the minimum and the maximum values of the percentage of cell-activated surface respectively, y is the percentage of cell-activated surface at the x concentration and nH is the Hill coefficient.

[3] = 2 butanone 0.0003, log10[ ] -3.52288
[4] = 2 butanone 0.005, log10[ ] -2.30

CC[C@H](C)[C@@H]1NC(=O)[C@H](Cc2ccccc2)NC(=O)[C@H](CC(=O)O)NC(=O)[C@@H](NC(=O)[C@@H](NC(=O)[C@H](CO)NC(=O)[C@@H](N)Cc2ccc(O)cc2)[C@@H](C)O)CSC(=O)[C@H](CCSC)NC1=O [Agr D1 thiolactone] (H-YSTCDFIM; thioester 4-C; N-terminus assumed)
agonist activity on T2R38 (in words) (T2R38): inactive | specific activation of T2R38 (T2R38; 0.1 mM solubilized in 0.3% DMSO): did not show specific activation; also recorded: did not activate T2R38 | solubility [1]: not soluble in aqueous solution

CCC(C)=O [2-butanone]
agonist activity on T2R38 (in words) (T2R38): able to specifically trigger this receptor | percentage of surface covered by activated cells (T2R38; [3]): 0.29% and 0.34% and 0.44% and 0.21% and 0.00% and 0.15% | percentage of surface covered by activated cells (T2R38; 2 butanone 0.001, log10[ ] -3): 0.13% and 1.98% and 3.16% and 3.22% and 0.15% and 0.22% | percentage of surface covered by activated cells (T2R38; [4]): 0.54% and 0.83% and 7.88% and 6.11% and 2.08% and 3.12% | response of T2R38 PAV transfected cells (S7_fig raw data) (T2R38): 17% and 13% and 2.7% and 11% and 15% and 12% and 7% and 6% | EC50 (T2R38): 11 mM | logEC50 (T2R38): -1.94 | Emax (% of positive control) (T2R38): 48 % of positive control | percentage of surface covered by activated cells [2, 3]: 0.39% and 0.10% and 0.28% and 0.31% and 0.23% and 0.40% | percentage of surface covered by activated cells ([2]; 2 butanone 0.001, log10[ ] -3): 0.15% and 0.21% and 0.35% and 0.12% and 1.02% and 0.24% | percentage of surface covered by activated cells [2, 4]: 0.20% and 0.26% and 0.34% and 0.21% and 0.24% and 0.71% | percentage of surface covered by activated cells ([2]; 2 butanone 0.015, log10[ ] -1.82): 0.00% and 0.0352% and 0.31% and 0.18% and 0.33% and 0.26% | percentage of surface covered by activated cells ([2]; 2 butanone 0.03, log10[ ] -1.52): 0.0659% and 0.02% and 0.27% and 0.40% and 0.08% and 0.25% | percentage of surface covered by activated cells ([2]; 2 butanone 0.08, log10[ ] -1.09691): 0.25% and 0.75% and 3.48% and 1.23% and 0.22% and 1.04% | response of T2R38 AVI transfected cells (S7_fig raw data) (T2R38 AVI): 0.268% and 0.426% and 0.699% and 0.605% and 0.163% and 0.0184% and 0.394% and 1%

CS [methylmercaptan]
agonist activity on T2R38 (in words) (T2R38): able to specifically trigger this receptor | response of T2R38 PAV transfected cells (S7_fig raw data) (T2R38; listed as méthylmercaptan): 3.25% and 3.44% and 8% and 6% and 6.36% and 5% and 1.09% and 2.8% and 3.57% and 1.72% and 3% and 1.56% and 5.64% and 4.55% | EC50 (T2R38): 8 mM | logEC50 (T2R38): -2.07 | percentage of surface covered by activated cells (T2R38; méthylmercaptan 0.000630957, log10[ ] -3.2): 0.11% and 0.07% and 0.29% and 0.31% and 0.27% and 0.54% and 0.96% and 0.62% | percentage of surface covered by activated cells (T2R38; méthylmercaptan 0.00439285, log10[ ] -2.35725): 0.81% and 0.87% and 0.46% and 0.37% and 1.33% and 0.26% and 1.05% and 0.97% | Emax (% of positive control) (T2R38): 31 % of positive control | percentage of surface covered by activated cells ([2]; méthylmercaptan 0.0075, log10[ ] -2.12494): 0.35% and 0.33% and 0.26% and 0.19% and 1.74% and 0.81% and 0.76% | percentage of surface covered by activated cells ([2]; méthylmercaptan 0.01, log10[ ] -2): 0.36% and 0.09% and 0.12% and 0.53% and 2.03% and 0.10% and 0.15% and 0.34% | response of T2R38 AVI transfected cells (S7_fig raw data) (T2R38 AVI; listed as méthylmercaptan): 0.549% and 0.185% and 0.235% and 0.0265% and 0.511% and 0.151% and 0.286% and 0.362% and 1.77% and 0.619% and 1.26% and 0.598% and 0.172% and 0.165%

CC(C)=O [acetone]
agonist activity on T2R38 (in words) (T2R38): able to specifically trigger this receptor | response of T2R38 PAV transfected cells (S7_fig raw data) (T2R38): 16% and 18% and 21% and 22% and 7% and 15% | percentage of surface covered by activated cells (T2R38; acetone 0.0035, log10[ ] -2.45): 0.29% and 0.16% and 0.35% | percentage of surface covered by activated cells (T2R38; acetone 0.011, log10[ ] -1.95): 1.02% and 0.77% and 0.78% and 0.46% and 1.17% and 0.98% | percentage of surface covered by activated cells (T2R38; acetone 0.035, log10[ ] -1.45): 0.69% and 0.81% and 7.95% and 5.59% and 2.13% and 2.80% | percentage of surface covered by activated cells (T2R38; acetone 0.066, log10[ ] -1.18): 2.66% and 2.94% and 6.89% and 9.70% | EC50 (T2R38): 60 mM | logEC50 (T2R38): -1.22 | Emax (% of positive control) (T2R38): 67 % of positive control | percentage of surface covered by activated cells ([2]; acetone 0.0035, log10[ ] -2.45): 1.26% and 0.40% and 0.58% | percentage of surface covered by activated cells ([2]; acetone 0.011, log10[ ] -1.95): 0.32% and 0.08% and 0.49% and 0.06% | percentage of surface covered by activated cells ([2]; acetone 0.035, log10[ ] -1.45): 0.26% and 0.42% and 1.02% and 0.10% | percentage of surface covered by activated cells ([2]; acetone 0.066, log10[ ] -1.18): 1.43% and 0.30% and 0.70% | percentage of surface covered by activated cells ([2]; acetone 0.114, log10[ ] -0.94): 0.76% and 0.05% and 0.38% and 0.11% | percentage of surface covered by activated cells ([2]; acetone 0.162, log10[ ] -0.79): 1.04% and 0.22% and 0.73% and 0.01% | percentage of surface covered by activated cells ([2]; acetone 0.185, log10[ ] -0.73): 0.0454% and 0.0283% and 0.02% | response of T2R38 AVI transfected cells (S7_fig raw data) (T2R38 AVI): 0.559% and 1.33% and 0.331% and 0.695% and 0.444% and 0.829%

CC[C@H](C)[C@H](NC(=O)[C@H](Cc1ccccc1)NC(=O)[C@H](CC(=O)O)NC(=O)[C@H](CCCNC(=N)N)NC(=O)[C@H](Cc1ccccc1)NC(=O)[C@H](Cc1ccccc1)NC(=O)[C@H](CCCCN)NC(=O)[C@H](CO)NC(=O)[C@H](CC(C)C)NC(=O)[C@H](CCCNC(=N)N)NC(=O)[C@H](CCSC)NC(=O)[C@@H](N)CCC(=O)O)C(=O)N[C@@H](CC(C)C)C(=O)N[C@@H](CCC(N)=O)C(=O)N[C@@H](CCCNC(=N)N)C(=O)N[C@@H](CCCCN)C(=O)N[C@@H](CCCCN)C(=O)O [CSP-1]
agonist activity on T2R38 (in words) (T2R38): inactive | response of T2R38 transfected cells (S6_fig raw data) (T2R38; CSP-1 0.5 mM, T2R38, individual values of experiments 1-3): 37.13% and 3.20% and 100.83% | solubility [1]: soluble at 0.5 mM in the buffer solution
